# Test results taken from patent publication US20030091998A1, “Association of beta2-adrenergic receptor haplotypes with drug response” (priority 2000, published 2003).
# System: asthma patients
# Assay: In vivo FEV1 (bronchodilator) response to albuterol in asthma patients, by β2AR haplotype pair
# Parameters: species or system human
# Method: The patients in the asthma cohort were enrolled from an outpatient facility as described in detail elsewhere (Yan, L., Galinsky, R. E., Bernstein, J. A., Liggett, S. B. & Weinshilboum, R. M. (1999) Pharmacogenetics in Press). […] Forced expiratory volume in 1 second (FEV1) and forced vital capacity (FVC) were determined in triplicate. The predicted values for these measurements were calculated based on standard algorithms (Morris, J. F., Koski, A. & Johnson, L. C. (1971) Am Rev Respir Dis 103, 57-67).
# The association between changes in % predicted FEV1 and haplotype pair was assessed by fitting an analysis of covariance model (ANCOVA) with terms for haplotype pair, sex and baseline severity. P-values from pairwise comparisons by haplotype pair were adjusted for multiple comparisons by applying the Holm-Sidak step-down procedure (Ludbrook, J. (1998) Clin and Exp Pharmacology & Physiology 25, 1032-1037.). […] In addition, the African-American asthma patients were excluded from the analysis due to the low number of individuals in this population group. For the analysis of individual SNPs, a similar ANCOVA model was employed with a discrete term for SNP genotype, and terms for sex and baseline severity. The Holm-Sidak step-down procedure was used to adjust the p-values from the individual SNP analyses for the number of tests performed.
# Pairwise tests were made while correcting for multiple comparisons. […] For this analysis, a similar ANCOVA model as above was utilized. […] Since 0, 1 or 2 copies of these two haplotypes are present in our population as haplotype pairs 2/2, 2/4 and 4/4, a potential gene dose effect can be assessed by regression analysis.
compound,measurement,setting,value
CC(C)(C)NCC(O)c1ccc(O)c(CO)c1 (centres unmarked) [albuterol],change % FEV1 (change in % predicted FEV1),"Caucasian asthma patients with β2AR haplotype pair 4/4, spirometry before and 30 min after inhalation of 180 μg albuterol by nebulization",8.53±1.78%
same,bronchodilator response to albuterol,asthmatic patients with β2AR haplotype pair 2/6,moderate bronchodilator response
same,bronchodilator response to albuterol,asthmatic patients with β2AR haplotype pairs 2/2 and 4/6,respond well
same,bronchodilator response to albuterol,asthmatic patients with β2AR haplotype pairs 2/4 and 4/4,little to no response
same,greater response of haplotype pair 2/2 than haplotype pair 4/4,"in vivo FEV1 response, individuals with haplotype pair 2/2 vs 4/4 (FIG. 5)",~50%
